According to PMC11056319, “Targeting PRMT9-mediated arginine methylation suppresses cancer stem cell maintenance and elicits cGAS-mediated anticancer immunity” (Nature Cancer, 2024):

These molecules were tested on Molm13 (assay: cells). Details: Homo sapiens, MOLM-13, 96 h, 4 days.
Parameters: Molm13 cell viability screen of virtual-screening hits, 4 days of treatment, per cent of control
Method: We performed virtual screening. Briefly, we screened compounds for binding affinity to PRMT9; compounds were from the National Cancer Institute (NCI) and ZINC library (Fig. 4a,b). […] We used doses of 1 and 5 µM in a Molm13 cell-based viability assay (Extended Data Fig. 6a). […] Specifically, we assessed their effects on PRMT9 catalysis (Extended Data Fig. 6b). […] Cells were treated for 4 days with 1 or 5 μM compounds. For each compound, the number represents its library ID. Experiments were triplicated; P values were derived from t tests. b, R493 methylation assay. […] Catalytic activity was assessed by anti-R493 antibody. Synthesized R493me peptide as positive control. c, Catalysis screen of top 20 compounds. PRMT9 protein was pretreated with indicated compound (10 μM), then incubated with PABPC1 peptides and SAM. d, e, Catalytic activity of indicated compounds based on R493 methylation assay (d). Inhibition curves were calculated based on intensity of dots and normalized to DMSO (e). […] LD2 is designed based on NSC641396 (g). Docking model of NSC641396 in the catalytic pocket (f). h, IC50 analysis of LD2 in B-NHL lines. Cells were treated for 4 days with LD2. […] Cells were treated with a dose titration of 0.5–40 μM LD2 for 48 hr. The inhibition activity of LD2 to PRMT9 (right red curve) was evaluated by calculating the normalized PABPC1 R493 methylation signal. The inhibition activity of LD2 to PRMT5 (right blue curve) was evaluated by calculating the normalized SmB’B’ methylation signal (supplementary Fig. 2). k, Vina docking of LD2 with PRMT9, PRMT5, CARM1 or PRMT7 was performed, and the average docking scores (kcal/mol, with standard deviation) were shown. l, Molecular dynamics simulation analyses of LD2 with PRMT9 or PRMT5.

Point of comparison: `O=C(Nc1ccccc1F)Nc1cccc2ccc(O)cc12` [NSC214005], viability at 1 µM 81.3%. Against it:
- Cc1c(O)ccc2c(O)c(NC(=O)c3ccc4c(c3)CCC(C)(C)O4)c(=O)oc12 [NSC5157] — higher, 94.6%
- O=C(O)c1ccccc1-c1ccccc1C(=O)Nc1ccc2c(c1)nc(O)c1ccccc12 [NSC127133] — higher, 99%
- O=C(Nc1cccc([N+](=O)[O-])c1)c1cccc(C(=O)Nc2cccc([N+](=O)[O-])c2)c1 [NSC204232] — higher, 110%
- Cc1ccc(C2=Nc3ccccc3SC(c3cccc([N+](=O)[O-])c3)C2)cc1 (stereo not drawn) [NSC270737] — higher, 90.8%
- CC(=O)O[C@H]1CC[C@]2(C)C(=CC[C@H]3[C@H]4C[C@H]5O[C@]6(CC[C@H](C)CN6)[C@H](C)[C@@H]5[C@]4(C)CC[C@@H]32)C1 [NSC96021] — higher, 102%
- O=C(Nc1cccc([N+](=O)[O-])c1)c1ccc2ccccc2c1O [NSC50648] — lower, 81%
- Cc1cc(N2CCN(C)CC2)n2nc(-c3ccc(Cl)cc3)nc2n1 [NSC252359] — lower, 64%
- Cc1ccc(-c2nc(-c3nccc4ccccc34)oc2-c2ccccc2)cc1 [NSC116702] — higher, 87.8%
- CCN1Cc2c(/C=C/c3ccccc3)nc3ccc(OC)cc3c2N(c2cccc(Cl)c2)C1 [NSC340852] — higher, 88.3%
- Cc1ccc2c(c1)c1ccc3c(c1n2C)C(=O)C=CC3=O [NSC661221] — lower, 7.53%
- c1ccc(-n2c3ccccc3c3ccccc32)cc1 [NSC10416] — higher, 99.1%
- O=C(Nc1ccc(Nc2ccncc2)cc1)c1ccc(Nc2ccnc3ccc([N+](=O)[O-])cc23)cc1[N+](=O)[O-] [NSC202386] — higher, 118%
- CN1CCN(C(=O)Nc2cccc(-c3ccccc3)c2)CC1 [NSC39352] — higher, 96.7%
- c1ccc(-c2nc(-c3ccccn3)nc(-c3ccccn3)n2)nc1 [NSC112125] — higher, 85.4%
- O=C(Nc1ccc(C2=NCCN2)cc1)c1ccc(Cl)c(C(=O)Nc2ccc(C3=NCCN3)cc2)c1 [NSC67436] — higher, 95.2%
- O=C1c2cccc(Oc3ccccc3)c2C(=O)c2cccc(Oc3ccccc3)c21 [NSC37627] — higher, 144%
- CCN(CC)c1ccc(/C=C/c2cc(-c3ccccc3)c3ccccc3n2)cc1 [NSC13487] — higher, 93.3%
- O=C1C(=Nc2cccc(Cl)c2)CC(c2ccc(Cl)cc2)N1c1cccc(Cl)c1 (stereo not drawn) [NSC13294] — higher, 98.3%
- CC1=CC(C)(C)Nc2ccc(Cc3ccc4c(c3)C(C)=CC(C)(C)N4)cc21 [NSC217697] — lower, 69.3%
- C#Cc1cccc(NC(=O)c2ccc(Cl)cc2Cl)c1 [NSC372769] — higher, 82.8%
- OC(COc1cccc2ccccc12)CN1CCN(c2ccc(Cl)cc2)CC1 (stereo not drawn) [NSC111210] — higher, 160%
- c1ccc(Nc2cccc3c(Nc4ccccc4)cccc23)cc1 [NSC24032] — higher, 120%
- NC1=NC(c2ccc(Cl)cc2)N(c2ccc(S(N)(=O)=O)cc2)C(N)=N1 (stereo not drawn) [NSC117268] — higher, 90.3%
- Oc1ccc2ccccc2c1C=Nc1ccccc1 [NSC111846] — lower, 77%
- COc1ccc(/C=C2\Cc3ccccc3C2=O)cc1OC [NSC643174] — higher, 116%
- O=C(O)c1cc2ccccc2cc1Nc1ccccc1 [NSC40275] — higher, 116%
- COc1cc2c(=O)n3c4c(cccc4c2cc1OC)CC3 [NSC276736] — higher, 97.9%
- Clc1ccccc1-c1nc2ccccc2[nH]1 [NSC128751] — lower, 80.4%
- CCn1c2ccccc2c2cc(NC(=O)c3ccccc3-c3ccccc3C(=O)O)ccc21 [NSC132232] — higher, 91.3%
- Clc1ccccc1/C=C/c1ccnc2ccccc12 [NSC15784] — higher, 85.7%
- CC[C@@]1(O)C(=O)OCc2c1cc1n(c2=O)Cc2cc3ccccc3nc2-1 [NSC94600] — lower, 2.48%

Point of comparison: `CC(=O)OCc1cc(-c2nc3ccccc3nc2O)nn1-c1ccc(Cl)cc1` [NSC339161], viability at 5 µM 87.5%. Against it:
- O=C(Nc1ccc(C2=NCCCN2)cc1)Nc1ccc(C2=NCCCN2)cc1 [NSC63680] — lower, 75.2%
- O=C(Nc1ccccc1F)Nc1cccc2ccc(O)cc12 [NSC214005] — lower, 72.7%
- O=C(O)c1ccccc1-c1ccccc1C(=O)Nc1ccc2c(c1)nc(O)c1ccccc12 [NSC127133] — higher, 102%
- Cc1ccc(C2=Nc3ccccc3SC(c3cccc([N+](=O)[O-])c3)C2)cc1 (stereo not drawn) [NSC270737] — lower, 15.1%
- CC(=O)O[C@H]1CC[C@]2(C)C(=CC[C@H]3[C@H]4C[C@H]5O[C@]6(CC[C@H](C)CN6)[C@H](C)[C@@H]5[C@]4(C)CC[C@@H]32)C1 [NSC96021] — higher, 87.9%
- O=C(Nc1cccc([N+](=O)[O-])c1)c1ccc2ccccc2c1O [NSC50648] — lower, 62.1%
- O=C(Nc1ccccc1-c1ccccc1)C(=O)Nc1ccccc1-c1ccccc1 [NSC338042] — higher, 93.1%
- Cc1cc(N2CCN(C)CC2)n2nc(-c3ccc(Cl)cc3)nc2n1 [NSC252359] — lower, 75.8%
- Cc1ccc(-c2nc(-c3nccc4ccccc34)oc2-c2ccccc2)cc1 [NSC116702] — higher, 150%
- O=C(Nc1ccccc1Cl)Oc1ccc(-c2ccccc2)cc1 [NSC204321] — higher, 90.1%
- O=C(Nc1ccc2ccccc2c1)c1ccc(Cl)cc1Cl [NSC158959] — higher, 127%
- CCN1Cc2c(/C=C/c3ccccc3)nc3ccc(OC)cc3c2N(c2cccc(Cl)c2)C1 [NSC340852] — lower, 53.2%
- N#Cc1ccc(NC(=O)Nc2ccc(Oc3ccc(NC(=O)Nc4ccc(C#N)cc4)cc3)cc2)cc1 [NSC80734] — lower, 67.2%
- Clc1cc2c(c(CSc3nc4ccccc4n4cccc34)c1)OCOC2 [NSC321491] — lower, 85.7%
- Cc1ccc2c(c1)c1ccc3c(c1n2C)C(=O)C=CC3=O [NSC661221] — lower, 7.31%
- c1ccc(-n2c3ccccc3c3ccccc32)cc1 [NSC10416] — lower, 81.7%
- O=C(Nc1ccc(Nc2ccncc2)cc1)c1ccc(Nc2ccnc3ccc([N+](=O)[O-])cc23)cc1[N+](=O)[O-] [NSC202386] — lower, 80.4%
- O=C(Nc1ccc(Br)c2ccccc12)c1ccc2ccccc2c1O [NSC601359] — lower, 72.7%
- CO[C@@H]1[C@@H](OC(=O)c2ccc(C)[nH]2)[C@@H](O)[C@H](Oc2ccc3c(O)c(NC(=O)c4ccc(O)c(CC=C(C)C)c4)c(=O)oc3c2Cl)OC1(C)C [NSC227186] — higher, 110%
- Cc1nn(-c2ccccc2)nc1C(=O)Nc1ccc2[nH]ncc2c1 [NSC371765] — lower, 86.1%
- Nc1ccc(-c2nc3nc(N)nc(N)c3nc2-c2ccc(N)cc2)cc1 [NSC61642] — higher, 116%
- c1ccc(-c2nc(-c3ccccn3)nc(-c3ccccn3)n2)nc1 [NSC112125] — lower, 81.8%
- COc1ccccc1/C=C1\Cc2ccccc2C1=O [NSC636717] — lower, 86%
- O=C(Nc1ccc(C2=NCCN2)cc1)c1ccc(Cl)c(C(=O)Nc2ccc(C3=NCCN3)cc2)c1 [NSC67436] — lower, 81.3%
- O=C1c2cccc(Oc3ccccc3)c2C(=O)c2cccc(Oc3ccccc3)c21 [NSC37627] — higher, 151%
- CCN(CC)c1ccc(/C=C/c2cc(-c3ccccc3)c3ccccc3n2)cc1 [NSC13487] — higher, 94.8%
- O=C1C(=Nc2cccc(Cl)c2)CC(c2ccc(Cl)cc2)N1c1cccc(Cl)c1 (stereo not drawn) [NSC13294] — higher, 97.9%
- CC1=CC(C)(C)Nc2ccc(Cc3ccc4c(c3)C(C)=CC(C)(C)N4)cc21 [NSC217697] — lower, 74.4%
- C#Cc1cccc(NC(=O)c2ccc(Cl)cc2Cl)c1 [NSC372769] — higher, 93.1%
- OC(COc1cccc2ccccc12)CN1CCN(c2ccc(Cl)cc2)CC1 (stereo not drawn) [NSC111210] — higher, 139%
- Cc1ccc(NC(=O)Nc2nc3ccccc3s2)cc1NC(=O)Nc1nc2ccccc2s1 [NSC319990] — higher, 96.9%
- C[C@H]1CC[C@@]2(C)[C@@H](CC[C@@H]3[C@@H]2CC[C@]2(C)[C@@H](O)CC[C@@H]32)C1 [NSC21603] — higher, 96.5%
- Oc1ccc2ccccc2c1C=Nc1ccccc1 [NSC111846] — lower, 84.6%
- c1ccc(-c2nc(-c3nccc4ccccc34)oc2-c2ccccc2)cc1 [NSC25457] — higher, 110%
- COc1ccc(/C=C2\Cc3ccccc3C2=O)cc1OC [NSC643174] — lower, 81%
- Clc1ccccc1-c1nc2ccccc2[nH]1 [NSC128751] — lower, 80%
- Fc1ccc(-c2cc(-c3cccs3)cc(-c3ccccc3)n2)cc1 [NSC246999] — higher, 98.7%
- Clc1ccccc1/C=C/c1ccnc2ccccc12 [NSC15784] — lower, 81.7%
- CC[C@@]1(O)C(=O)OCc2c1cc1n(c2=O)Cc2cc3ccccc3nc2-1 [NSC94600] — lower, 1.54%
